Test results from patent US20200121677A1, “SUBSTITUTED 6,7-DIHYDROPYRAZOLO[1,5-a]PYRAZINES AS NEGATIVE ALLOSTERIC MODULATORS OF MGLUR2 RECEPTORS” (Janssen Pharmaceutica NV, priority 2014, published 2020).
Counter-ions that a name gives are not always drawn.

How the values were obtained:
[1] = target: human mGlu2 receptor (Homo sapiens, UniProt Q14416); assay: [35S]GTPγS binding assay, mGluR2 negative allosteric modulation (membranes from CHO cells transfected with human mGlu2 receptor, glutamate ~EC80 60 μM); conditions: for GTPγS - hmGluR2 anGT pIC50: membranes with human mGlu2 receptor; for GTPγS - hmGluR2 anGT pIC50 / IC50: glutamate ~EC80 (60 μM), pIC50 = -log IC50 (M); for GTPγS - hmGluR2 anGT Emax: relative maximal effect: maximal % inhibition relative to the control glutamate response; for IC50: GTPγS - hmGluR2 anGT pIC50, membranes with human mGlu2 receptor; for Emax: read-out: GTPγS - hmGluR2 anGT Emax, relative maximal effect: maximal % inhibition relative to the control glutamate response;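 as to all read-outs here: membranes preincubated 30 min at 30 °C with compound plus glutamate, then [35S]GTPγS (0.1 nM) incorporation measured over another 30 min at 30 °C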
human mGlu2 receptor, sequence (Q14416 19-872): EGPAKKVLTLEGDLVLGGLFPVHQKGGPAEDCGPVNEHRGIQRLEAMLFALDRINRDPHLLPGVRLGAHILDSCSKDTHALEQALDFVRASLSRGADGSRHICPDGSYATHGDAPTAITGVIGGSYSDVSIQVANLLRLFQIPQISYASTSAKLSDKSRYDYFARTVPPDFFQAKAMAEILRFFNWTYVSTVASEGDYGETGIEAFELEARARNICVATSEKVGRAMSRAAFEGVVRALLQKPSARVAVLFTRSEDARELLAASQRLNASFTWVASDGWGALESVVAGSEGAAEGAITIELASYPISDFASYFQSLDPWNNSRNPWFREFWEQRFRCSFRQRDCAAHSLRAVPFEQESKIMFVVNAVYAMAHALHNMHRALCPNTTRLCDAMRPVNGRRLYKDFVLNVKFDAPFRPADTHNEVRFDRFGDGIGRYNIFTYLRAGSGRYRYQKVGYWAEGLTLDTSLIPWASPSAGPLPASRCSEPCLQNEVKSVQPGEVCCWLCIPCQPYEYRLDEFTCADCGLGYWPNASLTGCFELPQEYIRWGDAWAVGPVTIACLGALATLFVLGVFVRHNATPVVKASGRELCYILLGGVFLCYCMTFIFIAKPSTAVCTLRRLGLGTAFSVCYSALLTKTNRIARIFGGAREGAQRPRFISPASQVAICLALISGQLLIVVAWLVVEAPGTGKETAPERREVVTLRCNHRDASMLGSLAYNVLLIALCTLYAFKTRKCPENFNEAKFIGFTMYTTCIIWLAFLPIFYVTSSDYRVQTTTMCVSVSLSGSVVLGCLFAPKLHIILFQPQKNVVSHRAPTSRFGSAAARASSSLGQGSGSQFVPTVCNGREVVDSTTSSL
Procedure: The [^35S]GTPγS binding assay is a functional membrane-based assay used to study G-protein coupled receptor (GPCR) function whereby incorporation of a non-hydrolysable form of GTP, [^35S]GTPγS (guanosine 5′-triphosphate, labelled with gamma-emitting ^35S), is measured. […] Here we describe the use of the [^35S]GTPγS binding assay using membranes from cells transfected with the human mGlu2 receptor and adapted from Schaffhauser et al. (Molecular Pharmacology, 2003, 4:798-810) for the detection of the negative allosteric modulation (NAM) properties of the compounds of this invention.
CHO-cells were cultured to pre-confluence and stimulated with 5 mM butyrate for 24 h. Cells were then collected by scraping in PBS and cell suspension was centrifuged (10 min at 4000 RPM in benchtop centrifuge). Supernatant was discarded and pellet gently resuspended in 50 mM Tris-HCl, pH 7.4 by mixing with an Ultra Turrax homogenizer. The suspension was centrifuged at 12,400 RPM (Sorvall F14S-6x250Y) for 10 minutes and the supernatant discarded. The pellet was homogenized in 5 mM Tris-HCl, pH 7.4 using an Ultra Turrax homogenizer and centrifuged again (13,000 RPM, 20 min, 4° C.). The final pellet was resuspended in 50 mM Tris-HCl, pH 7.4 and stored at −80° C. in appropriate aliquots before use. Protein concentration was determined by the Bradford method (Bio-Rad, USA) with bovine serum albumin as standard.
Measurement of mGluR2 negative allosteric modulatory activity of test compounds was performed as follows. Test compounds and glutamate were diluted in assay buffer containing 10 mM HEPES acid, 10 mM HEPES salt, pH 7.4, 100 mM NaCl, 3 mM MgCl2 and 10 μM GDP. Human mGlu2 receptor-containing membranes were thawed on ice and diluted in assay buffer supplemented with 18 μg/ml saponin. Membranes were pre-incubated with compound together with a predefined (˜EC80) concentration of glutamate (60 μM) for 30 min at 30° C. After addition of [^35S]GTPγS (f.c. 0.1 nM), assay mixtures were shaken briefly and further incubated to allow [^35S]GTPγS incorporation on activation (30 minutes, 30° C.). Final assay mixtures contained 7 μg of membrane protein in 10 mM HEPES acid, 10 mM HEPES salt, pH 7.4, 100 mM NaCl, 3 mM MgCl2, 10 μM GDP and 10 μg/ml saponin. Total reaction volume was 200 μl. Reactions were terminated by rapid filtration through Unifilter-96 GF/B plates (Perkin Elmer, Massachusetts, USA) using a 96-well filtermate universal harvester. Filters were washed 6 times with ice-cold 10 mM NaH2PO4/10 mM Na2HPO4, pH 7.4. Filters were then air-dried, and 30 μl of liquid scintillation cocktail (Microscint-O) was added to each well. Membrane-bound radioactivity was counted in a Topcount.
Data were calculated as % of the control glutamate response, defined as the response that is generated upon addition of an EC80-equivalent concentration of glutamate.

C[C@H]1CN(c2ccc(C(F)(F)F)cc2)C(=O)c2c(C(=O)Nc3cncc(F)c3)cnn21 (as salt: HCl) [13a]
melting point: 146.4 °C

COCC1CN(c2ccc(C(F)(F)F)cc2)C(=O)c2c(C(=O)Nc3cccnc3)cnn21 (racemic) [compound 165]
GTPγS - hmGluR2 anGT pIC50 [1]: 8.03 | GTPγS - hmGluR2 anGT Emax [1]: 106%

CC(NC(=O)c1cnn2c1C(=O)N(c1ccc(C(F)(F)F)cc1)C[C@@H]2C)C1CC1 (single isomer, unassigned) [compound 61]
IC50 [1]: 7.08e-08 M | Emax [1]: 104% | melting point: 186.7 °C

COCC1CN(c2ccc(C(F)(F)F)cc2)C(=O)c2c(C(=O)Nc3cnccn3)cnn21 (single isomer, unassigned) [compound 155]
GTPγS - hmGluR2 anGT pIC50 [1]: 6.48 | GTPγS - hmGluR2 anGT Emax [1]: 106%

COCC1CN(c2ccc(C(F)(F)F)c(Cl)c2)C(=O)c2c(C(=O)Nc3cccnc3)cnn21 (single isomer, unassigned) [compound 157]
IC50 [1]: 2.82e-07 M | Emax [1]: 104%

COCC1CN(c2ccc(C(F)(F)F)cc2)C(=O)c2c(C(=O)Nc3cccnc3)cnn21 (single isomer, unassigned) [compound 159]
GTPγS - hmGluR2 anGT pIC50 [1]: 6.10 | GTPγS - hmGluR2 anGT Emax [1]: 108%

C[C@H]1CN(c2ccc(C(F)(F)F)cc2)C(=O)c2c(C(=O)Nc3cncc(F)c3)cnn21 [13a]
IC50 [1]: 1.1e-09 M | GTPγS - hmGluR2 anGT Emax [1]: 106%

C[C@H]1CN(c2ccc(C(F)(F)F)cc2)C(=O)c2c(C(=O)Nc3cccc(S(C)(=O)=O)c3)cnn21 [compound 2]
IC50 [1]: 1.7e-09 M | Emax [1]: 103% | melting point: 217.7 °C

C[C@H]1CN(c2ccc(C(F)(F)F)cc2)C(=O)c2c(C(=O)Nc3ccc(S(C)(=O)=O)cc3)cnn21 [compound 6]
IC50 [1]: 3.09e-09 M | Emax [1]: 107% | melting point: 198.2 °C

Cc1ncccc1NC(=O)c1cnn2c1C(=O)N(c1ccc(C(F)(F)F)cc1)C[C@@H]2C [compound 10]
IC50 [1]: 2e-08 M | Emax [1]: 113% | melting point: 171.6 °C

COc1cccnc1NC(=O)c1cnn2c1C(=O)N(c1ccc(C(F)(F)F)cc1)C[C@@H]2C [compound 11]
IC50 [1]: 2.4e-07 M | Emax [1]: 109% | melting point: 164.7 °C

C[C@H]1CN(c2ccc(C(F)(F)F)cc2)C(=O)c2c(C(=O)Nc3ncccc3F)cnn21 [compound 12]
IC50 [1]: 4.79e-08 M | Emax [1]: 110%

COc1cnccc1NC(=O)c1cnn2c1C(=O)N(c1ccc(C(F)(F)F)cc1)C[C@@H]2C [compound 16]
IC50 [1]: 1.38e-08 M | Emax [1]: 115% | melting point: 200.8 °C

Cc1cccc(NC(=O)c2cnn3c2C(=O)N(c2ccc(C(F)(F)F)cc2)C[C@@H]3C)n1 [compound 17]
GTPγS - hmGluR2 anGT pIC50 [1]: 7.39 | GTPγS - hmGluR2 anGT Emax [1]: 107%

Cc1cncc(NC(=O)c2cnn3c2C(=O)N(c2ccc(C(F)(F)F)c(F)c2)C[C@@H]3C)c1 [compound 22]
IC50 [1]: 3.55e-09 M | Emax [1]: 109% | melting point: 246.7 °C

C[C@H]1CN(c2ccc(C(F)(F)F)c(F)c2)C(=O)c2c(C(=O)Nc3cncc(F)c3)cnn21 [compound 24]
IC50 [1]: 3.24e-09 M | Emax [1]: 107% | melting point: 204 °C

COCc1cc(N2C[C@H](C)n3ncc(C(=O)Nc4ccccn4)c3C2=O)ccc1C(F)(F)F [compound 31]
IC50 [1]: 2.29e-08 M | Emax [1]: 109% | melting point: 160.4 °C

COc1cncc(NC(=O)c2cnn3c2C(=O)N(c2ccc(C(F)(F)F)c(OC)c2)C[C@@H]3C)c1 [compound 34]
IC50 [1]: 1.05e-08 M | Emax [1]: 107% | melting point: 191.5 °C

C[C@H]1CN(c2ccc(C(F)(F)F)c(Cl)c2)C(=O)c2c(C(=O)Nc3cncc(F)c3)cnn21 [compound 50]
IC50 [1]: 1.74e-09 M | Emax [1]: 108% | melting point: 168.1 °C

COc1cncc(NC(=O)c2cnn3c2C(=O)N(c2ccc(C(F)(F)F)c(Cl)c2)C[C@@H]3C)c1 [compound 51]
IC50 [1]: 1.41e-09 M | Emax [1]: 113% | melting point: 214.9 °C

C[C@H]1CN(c2ccc(C(F)(F)F)c(CF)c2)C(=O)c2c(C(=O)Nc3ccncc3)cnn21 [compound 52]
IC50 [1]: 2.57e-09 M | Emax [1]: 118% | melting point: 197.4 °C

C[C@H]1CN(c2ccc(C(F)(F)F)c(CF)c2)C(=O)c2c(C(=O)Nc3cccnc3)cnn21 [compound 53]
GTPγS - hmGluR2 anGT pIC50 [1]: 8.61 | GTPγS - hmGluR2 anGT Emax [1]: 114%

Cc1cc(NC(=O)c2cnn3c2C(=O)N(c2ccc(C(F)(F)F)c(CF)c2)C[C@@H]3C)ccn1 [compound 54]
IC50 [1]: 5.25e-09 M | Emax [1]: 118% | melting point: 141.3 °C

C[C@H]1CN(c2ccc(C(F)(F)F)cc2)C(=O)c2c(C(=O)Nc3ccc(F)nc3)cnn21 [compound 55, (7S)—N-(6-fluoro-3-pyridyl)-7-methyl-4-oxo-5-[4-(trifluoromethyl)phenyl]-6,7-dihydropyrazolo[1,5-a]pyrazine-3-carboxamide]
IC50 [1]: 5.62e-09 M | Emax [1]: 101%

C[C@H]1CN(c2ccc(Cl)c(Cl)c2)C(=O)c2c(C(=O)Nc3ccc(F)nc3)cnn21 [compound 56]
GTPγS - hmGluR2 anGT pIC50 [1]: 8.53 | GTPγS - hmGluR2 anGT Emax [1]: 104%

C[C@H]1CN(c2ccc(C(F)(F)F)cc2)C(=O)c2c(C(=O)Nc3ccccc3)cnn21 [compound 57, (7S)-7-Methyl-4-oxo-N-phenyl-5-[4-(trifluoromethyl)phenyl]-6,7-dihydropyrazolo[1,5-a]pyrazine-3-carboxamide]
IC50 [1]: 1.7e-09 M | Emax [1]: 102%

C[C@H]1CN(c2ccc(C(F)(F)F)cc2)C(=O)c2c(C(=O)NCC3CCC3)cnn21 [compound 58]
IC50 [1]: 1.82e-08 M | Emax [1]: 113% | melting point: 204.6 °C

C[C@H]1CN(c2ccc(C(F)(F)F)cc2)C(=O)c2c(C(=O)NCC3CCCC3)cnn21 [compound 59]
IC50 [1]: 3.55e-08 M | Emax [1]: 103% | melting point: 159.8 °C

C[C@H]1CN(c2ccc(C(F)(F)F)cc2)C(=O)c2c(C(=O)NCC3CC3)cnn21 [compound 60]
IC50 [1]: 4.37e-08 M | Emax [1]: 103% | melting point: 161.4 °C

C[C@H]1CN(c2ccc(C(F)(F)F)cc2)C(=O)c2c(C(=O)NCC3CCCO3)cnn21 (stereo partly shown) [compound 62]
IC50 [1]: 7.76e-08 M | Emax [1]: 104% | melting point: 231.4 °C

Cc1cc(CNC(=O)c2cnn3c2C(=O)N(c2ccc(C(F)(F)F)cc2)C[C@@H]3C)ccn1 [compound 63]
IC50 [1]: 1.17e-07 M | Emax [1]: 99% | melting point: 148.8 °C

C[C@H]1CN(c2ccc(C(F)(F)F)cc2)C(=O)c2c(C(=O)NCC3CCOC3)cnn21 (stereo partly shown) [compound 64]
IC50 [1]: 1.7e-07 M | Emax [1]: 107% | melting point: 68.3 °C

C[C@H]1CN(c2ccc(C(F)(F)F)cc2)C(=O)c2c(C(=O)NC3CCCCC3)cnn21 [compound 65]
IC50 [1]: 1.78e-07 M | Emax [1]: 107% | melting point: 209.8 °C

C[C@H]1CN(c2ccc(C(F)(F)F)cc2)C(=O)c2c(C(=O)NC3CCOCC3)cnn21 [compound 66]
IC50 [1]: 1.86e-07 M | Emax [1]: 103%

C[C@H]1CN(c2ccc(C(F)(F)F)cc2)C(=O)c2c(C(=O)NCc3ccccc3)cnn21 [compound 67]
IC50 [1]: 2e-07 M | Emax [1]: 104%

C[C@H]1CN(c2ccc(C(F)(F)F)cc2)C(=O)c2c(C(=O)NC(C)(C)C)cnn21 [compound 68]
IC50 [1]: 2.63e-07 M | Emax [1]: 102%

CNC(=O)c1cnn2c1C(=O)N(c1ccc(C(F)(F)F)cc1)C[C@@H]2C [compound 69]
IC50 [1]: 4.57e-07 M | Emax [1]: 103%

C[C@H]1CN(c2ccc(C(F)(F)F)cc2)C(=O)c2c(C(=O)NCC3CCOCC3)cnn21 [compound 70]
IC50 [1]: 8.13e-07 M | Emax [1]: 106% | melting point: 128.8 °C

C[C@H]1CN(c2ccc(C(F)(F)F)cc2)C(=O)c2c(C(=O)NC3CCC3)cnn21 [compound 71]
IC50 [1]: 7.08e-08 M | Emax [1]: 111% | melting point: 208.2 °C

C[C@H]1CN(c2ccc(C(F)(F)F)cc2)C(=O)c2c(C(=O)NC3COC3)cnn21 [compound 72]
IC50 [1]: 2.75e-07 M | Emax [1]: 111% | melting point: 108.6 °C

C[C@H]1CN(c2ccc(C(F)(F)F)cc2)C(=O)c2c(C(N)=O)cnn21 [compound 73, (7S)-7-methyl-4-oxo-5-[4-(trifluoromethyl)phenyl]-6,7-dihydropyrazolo [1,5-a]pyrazine-3-carboxamide]
IC50 [1]: 1.35e-06 M | Emax [1]: 95% | melting point: 275 °C

Cc1cc(N2C[C@H](C)n3ncc(C(=O)Nc4cncc(F)c4C)c3C2=O)ccc1Cl [compound 79]
IC50 [1]: 1.66e-09 M | Emax [1]: 112% | melting point: 182 °C

COc1ccc(NC(=O)c2cnn3c2C(=O)N(c2ccc(C(F)(F)F)cc2)C[C@@H]3C)nc1 [compound 102]
GTPγS - hmGluR2 anGT pIC50 [1]: 7.67 | GTPγS - hmGluR2 anGT Emax [1]: 112%

C[C@H]1CN(c2ccc(C(F)(F)F)cc2)C(=O)c2c(C(=O)NC=O)cnn21 [compound 134]
IC50 [1]: 6.31e-08 M | Emax [1]: 103%

Cc1cc(C(=O)NC(=O)c2cnn3c2C(=O)N(c2ccc(C(F)(F)F)cc2)C[C@@H]3C)ccn1 [compound 135, (7S)-7-Methyl-N-(2-methylpyridine-4-carbonyl)-4-oxo-5-[4-(trifluoromethyl)phenyl]-6,7-dihydropyrazolo[1,5-a]pyrazine-3-carboxamide]
IC50 [1]: 6.92e-07 M | Emax [1]: 111%

COCc1cc(NC(=O)c2cnn3c2C(=O)N(c2ccc(C(F)(F)F)cc2)C[C@@H]3C)ccn1 [compound 149]
GTPγS - hmGluR2 anGT pIC50 [1]: 7.69 | GTPγS - hmGluR2 anGT Emax [1]: 104%

COCC1CN(c2ccc(C(F)(F)F)cc2)C(=O)c2c(C(=O)Nc3cnccn3)cnn21 (stereo not shown) [compound 163]
IC50 [1]: 1.02e-08 M | Emax [1]: 107%

COCC1CN(c2ccc(C(F)(F)F)c(Cl)c2)C(=O)c2c(C(=O)Nc3cccnc3)cnn21 (stereo not shown) [compound 164]
IC50 [1]: 1.91e-09 M | Emax [1]: 108%
